In patent US9574174B2, “Cell culture” (PLASTICELL LIMITED, priority 2002, dated 2017):

Columns and labels:
[1] = tested on: cytochrome P450 (CyP450) metabolic enzymes; assay: CyP450 ethoxyresorufin assay on HepG2 cell units; type: cell-based, human
Procedure: A split-pool culture experiment was performed in order to assay tissue culture conditions that might affect a particular cellular process, namely the expression and/or activity of cytochrome P450 (CyP450) metabolic enzymes. Members of this class of enzyme, such as 1A1 and 1A2, can be assayed with the use of a substrate, ethoxyresorufin, that is enzymatically hydrolyzed to produce a product, resorufin, that has distinct fluorescence characteristics that can be used to measure CyP450 enzyme activity. The expression of CyP450 enzymes can be regulated by inducer molecules, such as β-naphthoflavone, and inhibitors such as α-naphthoflavone, quinidine, or aminotriazole. It is also possible for some molecules to induce expression of a CyP450 gene(s), but inhibit activity of the enzyme product of that gene. Therefore, complicated patterns of expression and activity can arise according to the pattern of serial exposure of cells to regulatory compounds. […]
For the CyP450 assay, aliquots of beads in growth medium were removed and the enzyme substrate ethoxyresorufin was added to a final concentration of 10 μM. The samples of beads were placed on a microscope slide with a cover slip, and observed immediately with an epifluorescent microscope using a standard filter set for Texas Red/rhodamine fluorescence (see FIG. 9). […]

[2] = tested on: mouse ES cells; assay: RT-PCR detection of differential gene expression in ES cell units after split-split culture; type: cell-based; conditions: DMEM, 1 μM, FIG. 11
Procedure: Pluripotent mouse ES cell units were cultured for five days in ES cell medium (see example 3), the ES medium was decanted and the cell units washed twice with PBS to remove traces of ES medium. The bead population was split into three groups, and the PBS decanted and replaced with one of (i) ES cell medium; (ii) Dulbecco's modified Eagle's medium (DMEM) with 10% fetal calf serum; or (iii) Chemically Defined Medium (CDM; Wiles M V, Johansson B M, 1999, Exp. Cell Res., vol 247, p. 241-8). After one hour culture under standard conditions, each of the three groups were split into three further groups, each of which was incubated in one of: (i) the medium in which the cell groups were cultured; the medium in which the cell groups were cultured including 1 μM LiCl; or (iii) the medium in which the cell groups were cultured including 1 μm retinoic acid (RA). Every other day half the medium was replaced with the respective fresh medium.
Cell units of mouse ES cells induced to differentiate by split-split culture (see example 4) were washed with PBS, and RNA prepared from the cell units using Rneasy reagents according to manufacturer's instructions (Qiagen). RNA samples were then used to prepare first strand cDNA with oligo-dT priming using reverse transcriptase according to the manufacturer's instructions (Invitrogen). […]

Row | P450 level / conversion of ethoxyresorufin to fluorescent product ([1]; HepG2 cell units following a split pool experiment, FIG. 9 Panels E/F) | time until enzyme activity (resorufin fluorescence) is evident after addition of ethoxyresorufin ([1]; HepG2 cell units on CYTODEX 3 treated in a control experiment, 10 μM ethoxyresorufin, control cells about 15-20 minutes) [min] | SMILES | decrease in Oct4 [2]
1 | high levels of P450 | 5 to 10 | O=c1cc(-c2ccccc2)oc2ccc3ccccc3c12 [β-naphthoflavone] | –
2 | – | – | [Cl-].[Li+] [LiCl] | inhibited the reduction
